Here are results for six compounds from patent US20170334899A1, “AMINO-SUBSTITUTED ISOTHIAZOLES” (Bayer Pharma Aktiengesellschaft, priority 2014, published 2017).

Assay type in all cases: cell-based
Assay [1] has as its system HeLa-MaTu-ADR. As to the kind of experiment: Proliferation assay (crystal violet), HeLa-MaTu-ADR. As to conditions: 96 h; HeLa-MaTu-ADR cells; 4 days incubation; crystal violet staining; read-out: IC50 inhibition of proliferation, HeLa-MaTu-ADR. Summed up:
(§1)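 Tumor cells seeded at 1000–5000 cells/well in medium with 10% FCS; after 24 h, compounds added at 0.001–10 μM (0.5% DMSO) for 4 days. Cells fixed with glutaraldehyde, stained with crystal violet, dye dissolved in acetic acid and read at 595 nm. IC50 from 4-parameter fit, normalized to zero-point plate and untreated cells.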

Assay [2] has as its system NCI-H460. Nature of the assay: Proliferation assay (crystal violet), NCI-H460. Particulars: Homo sapiens, 96 h; NCI-H460 cells; 4 days incubation; crystal violet staining; read-out: IC50 inhibition of proliferation, NCI-H460. Summed up: as §1
Assay [3] deals with DU145. As to the kind of experiment: Proliferation assay (crystal violet), DU145. Particulars: Homo sapiens, DU-145, 96 h; DU145 cells; 4 days incubation; crystal violet staining; read-out: IC50 inhibition of proliferation, DU145. The method in brief: as §1
Assay [4] deals with Caco-2. Nature of the assay: Proliferation assay (crystal violet), Caco-2. Particulars: Homo sapiens, 96 h; Caco-2 cells; 4 days incubation; crystal violet staining; read-out: IC50 inhibition of proliferation, Caco2. The method in brief:
as §1

Assay [5] relates to B16F10. As to the kind of experiment: Proliferation assay (crystal violet), B16F10. Particulars: Mus musculus, B16-F10, 96 h; B16F10 cells; 4 days incubation; crystal violet staining; read-out: IC50 inhibition of proliferation, B16F10. Summed up: as §1

On to `Cc1nsc(Nc2cnc(C(F)(F)F)cn2)c1C(=O)Nc1ccc(OC2CCN(C(=O)OC(C)(C)C)CC2)nc1` [Example 5, tert-Butyl 4-[(5-{[(3-methyl-5-{[5-(trifluoromethyl)pyrazin-2-yl]amino}-1,2-thiazol-4-yl)carbonyl]amino}pyridin-2-yl)oxy]piperidine-1-carboxylate], for which the IC50 in assay [1] was 370 nM; in assay [2], 250 nM; in assay [3], 520 nM; in assay [4], 350 nM; in assay [5], 350 nM.
As for `COCCOc1ccc(NC(=O)c2c(C)nsc2Nc2nc3c(C(F)(F)F)cccc3s2)cc1F` [Example 1, N-[3-Fluoro-4-(2-methoxyethoxy)phenyl]-3-methyl-5-{[4-(trifluoromethyl)-1,3-benzothiazol-2-yl]amino}-1,2-thiazole-4-carboxamide], the IC50 was 370 nM in assay [1]; 240 nM in assay [2]; 440 nM in assay [3]; 260 nM in assay [4]; 410 nM in assay [5].
Consider `Cc1nsc(Nc2cnc3ccccc3n2)c1C(=O)Nc1cccc(C(=O)OC(C)(C)C)c1` [Example 49, tert-Butyl 3-({[3-methyl-5-(quinoxalin-2-ylamino)-1,2-thiazol-4-yl]carbonyl}amino)-benzoate], for which the IC50 came out at 590 nM in assay [1]; 460 nM in assay [2]; 1100 nM in assay [3]; 650 nM in assay [4]; 910 nM in assay [5].
On to `Cc1nsc(Nc2ccc(C#N)cn2)c1C(=O)Nc1ccc(OC2CCCN(CC(F)(F)F)C2)nc1` (stereo not drawn) [Example 40, 5-[(5-Cyanopyridin-2-yl)amino]-3-methyl-N-(6-{[1-(2,2,2-trifluoroethyl)piperidin-3-yl]oxy}pyridin-3-yl)-1,2-thiazole-4-carboxamide], for which the IC50 amounted to 320 nM in assay [1]; 360 nM in assay [2]; 660 nM in assay [3]; 500 nM in assay [4]; 780 nM in assay [5].
On the same counts, the results for `Cc1nsc(Nc2ccc(C#N)cn2)c1C(=O)Nc1ccc(OC2CCCN(CC(F)F)C2)nc1` (stereo not drawn) [Example 39, 5-[(5-Cyanopyridin-2-yl)amino]-N-(6-{[1-(2,2-difluoroethyl)piperidin-3-yl]oxy}-pyridin-3-yl)-3-methyl-1,2-thiazole-4-carboxamide] are 810 nM, 990 nM, 2000 nM, 1500 nM and 2200 nM.
The corresponding values for `Cc1nsc(Nc2ccc(C#N)cn2)c1C(=O)Nc1ccc(OC2CCCN(C(=O)OC(C)(C)C)C2)nc1` (stereo not drawn) [Example 36, tert-Butyl 3-({5-[({5-[(5-cyanopyridin-2-yl)amino]-3-methyl-1,2-thiazol-4-yl}-carbonyl)amino]pyridin-2-yl}oxy)piperidine-1-carboxylate] are 330 nM, 400 nM, 860 nM, 330 nM and 550 nM.
